Drawing on paper PMC12655637, “Design, Synthesis, and Mechanistic Study of Novel Ciprofloxacin/Thiazole Chalcone Hybrids as Potential Anticancer Agents” (Pharmaceuticals, 2025), this text covers IC50 and Selectivity ratio for 8 compounds.

Series [1] deals with tubulin polymerization. Also on record: method as in PMID 40308265. As to conditions: read-out: IC50 inhibition of tubulin polymerization; cited from earlier work.
Series [2] in a line: In vitro cytotoxicity against normal cell line WI 38. The series is classed as cell-based. As to conditions: human, WI-38 normal cell line; ± SEM. The text has this: Detailed results of cytotoxicity of compounds 4b and 4d against normal cell
Blank CC Sample No. 4b/WI38 sample no. 4d/WI38
conc. viability conc. viability

The test system of series [3] is non-small-cell lung cancer A459. Also on record: method as in PMID 27555286. As to conditions: A459 ref 30; cited from earlier work.
Series [4] has as its system human melanoma LOX IMVI cancer cell line. Also on record: method as in PMID 39406816. As to conditions: LOX IMVI ref 33; cited from earlier work.
The subject of series [5] is renal cancer cell line UO-31. Also on record: method as in PMID 29547830. As to conditions: UO-31 ref 31; cited from earlier work.
Series [6] relates to CCRF-CEM. Also on record: method as in PMID 39338317. To be noted: CCRF-CEM ref 14; cited from earlier work.
Series [7] relates to MDA-MB-468. Also on record: method as in PMID 39338317. To be noted: MDA-MB-468 ref 14; cited from earlier work.
The test system of series [8] is OVCAR-3. Also on record: method as in PMID 39338317. As to conditions: OVCAR-3 ref 14; cited from earlier work.
In series [9] the test system is RPMI-8226. Also on record: method as in PMID 39338317. As to conditions: RPMI-8226 ref 14; cited from earlier work.
For series [10], the system named is leukemia subpanel. Also on record: method as in PMID 24090914. As to conditions: leukemia subpanel ref 26; cited from earlier work.
The test system of series [11] is MCF-7. Also on record: method as in PMID 40308265. To be noted: MCF-7 ref 32; cited from earlier work.
Series [12] concerns HCT-116. Also on record: method as in PMID 40308265. To be noted: HCT-116 ref 32; cited from earlier work.
Series [13] relates to MDAMB-231. Also on record: method as in PMID 40308265. To be noted: MDAMB-231 ref 32; cited from earlier work.
In series [14] the test system is PC-3. Also on record: method as in PMID 40308265. To be noted: PC-3 ref 32; cited from earlier work.

The IC50 is the concentration that inhibits the measured activity by half.

As to `COc1ccc(/C=C\c2cc(OC)c(OC)c(OC)c2)cc1O` [CA-4], the IC50 in [1] was 8.33 µM.
For `COc1cccc2c1C(=O)c1c(O)c3c(c(O)c1C2=O)C[C@@](O)(C(=O)CO)C[C@@H]3O[C@H]1C[C@H](N)[C@H](O)[C@H](C)O1` [Doxorubicin, doxorubicin, reference compound], in series [2], the IC50 is 19.8 ± 0.68 µM.
Take `O=C(CN1CCN(c2cc3c(cc2F)c(=O)c(C(=O)O)cn3C2CC2)CC1)Nc1ccc(Cl)cc1` [III]: the IC50 in series [3] is 14.8 µM.
With `O=C(O)c1cn(C2CC2)c2cc(N3CCN(C(=O)CCCN4C(=O)S/C(=C\c5ccc(F)cc5)C4=O)CC3)c(F)cc2c1=O` [IIX], the IC50 in series [4] is 25.4 µM.
As for `O=C(CN1CCN(c2cc3c(cc2F)c(=O)c(C(=O)O)cn3C2CC2)CC1)N/N=C/c1ccccc1O` [IV], in series [5], the half-maximal inhibitory concentration (IC50) was 0.75 µM.
As for `O=C(/C=C/c1ccc(Cl)cc1)c1c[nH]c(=S)s1` [VII], the concentration for half-maximal inhibition (IC50) is 2.88 µM in series [6], 2.51 µM in series [7], 2.82 µM in series [8] and 2.4 µM in series [9].
For `COc1cc(/C=C/C(=O)c2ccc(NC(=O)N3CCN(c4cc5c(cc4F)c(=O)c(C(=O)O)cn5C4CC4)CC3)cc2)cc(OC)c1OC` [VI], in series [10], the Selectivity ratio was 6.71.
Take `COc1cc(/C=C/C(=O)c2sc(SCC(=O)Nc3nc(-c4ccccc4)cs3)nc2C)cc(OC)c1OC` [V]: the IC50 in series [11] was 4 µM; in series [12], 8 µM; in [13], 6 µM; in [1], 2.69 µM; in [14], 7 µM.
